Experiments:
[1] = target: T1, G12V-mutant human KRAS (amino acid residues 1-188) (Homo sapiens, UniProt P01116, G12V); test: KRAS Binding Competition Assay (AlphaScreen; biotinylated KRpep-2d analogue), G12V; conditions: geometric mean, read-out: KRAS GMean IC50 (uM) MUTATION: G12V
T1 construct: G12V-mutant human KRAS (amino acid residues 1-188) with FLAG tag was purified from E. coli; made in house; host or cells: E. coli

[2] = target: T2, G12D-mutant human KRAS (amino acid residues 1-188) (Homo sapiens, UniProt P01116, G12D); test: KRAS Binding Disruption Assay (AlphaScreen; biotinylated KRpep-2d analogue or RAF1-RBD), G12D; conditions: KRAS G12D; geometric mean; read-out: KRAS GMean IC50 (uM) MUTATION: G12D
T2 construct: G12D or G12C-mutant human KRAS (amino acid residues 1-188) with FLAG tag; made in house; host or cells: E. coli
How it was run: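 Mutant KRAS (5-20 nM) incubated 1 h at 25° C with test compound and 5-20 nM biotinylated KRpep-2d analogue or RAF1-RBD in 20 mM HEPES pH 7.5, 100 mM NaCl, 5 mM MgCl2, 0.01% Tween-20, 0.01% BSA.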

`CN1CCC[C@H]1COc1nc(N2[C@@H]3CC[C@H]2CNC3)c2ccc(-c3cc(N)cc4ccccc34)cc2n1` [P-0265, 4-(4-((1R,5S)-3,8-diazabicyclo[3.2.1]octan-8-yl)-2-(((S)-1-methylpyrrolidin-2-yl)methoxy)quinazolin-7-yl)naphthalen-2-amine] gave an IC50 [1] of 0.0001 to 10 µM and an IC50 [2] of 0.0001 to 10 µM.
With `CN1CCC[C@H]1COc1nc(N2[C@@H]3CC[C@H]2CN(C(=O)NC2CCN(C4CCCCC4)C2)C3)c2ccc(-c3cc(O)cc4ccccc34)cc2n1` (stereo partly drawn) [P-0266, (1R,5S)-N-(1-cyclohexylpyrrolidin-3-yl)-8-(7-(3-hydroxynaphthalen-1-yl)-2-(((S)-1-methylpyrrolidin-2-yl)methoxy)quinazolin-4-yl)-3,8-diazabicyclo[3.2.1]octane-3-carboxamide] the IC50 [1] was 10 to 100 µM and the IC50 [2] was 10 to 100 µM.
`CN1CCC[C@H]1COc1nc(N2[C@@H]3CC[C@H]2CN(C(=O)CCCN2CCOCC2)C3)c2ccc(-c3cc(O)cc4ccccc34)cc2n1` [P-0267, 1-((1R,5S)-8-(7-(3-hydroxynaphthalen-1-yl)-2-(((S)-1-methylpyrrolidin-2-yl)methoxy)quinazolin-4-yl)-3,8-diazabicyclo[3.2.1]octan-3-yl)-4-morpholinobutan-1-one] was tested, and the IC50 [1] was 10 to 100 µM and the IC50 [2] was 10 to 100 µM.
Compound `CN1CCC[C@H]1COc1nc(N2[C@@H]3CC[C@H]2CN(c2cnccn2)C3)c2ccc(-c3cc(O)cc4ccccc34)cc2n1` [P-0268, 4-(2-(((S)-1-methylpyrrolidin-2-yl)methoxy)-4-((1R,5S)-3-(pyrazin-2-yl)-3,8-diazabicyclo[3.2.1]octan-8-yl)quinazolin-7-yl)naphthalen-2-ol] has an IC50 [1] of 10 to 100 µM and an IC50 [2] of 10 to 100 µM.
Work on `CN1CCC[C@H]1COc1nc(N2[C@@H]3CC[C@H]2CN(CC(=O)N2CCNCC2)C3)c2ccc(-c3cc(O)cc4ccccc34)cc2n1` [P-0269, 2-((1R,5S)-8-(7-(3-hydroxynaphthalen-1-yl)-2-(((S)-1-methylpyrrolidin-2-yl)methoxy)quinazolin-4-yl)-3,8-diazabicyclo[3.2.1]octan-3-yl)-1-(piperazin-1-yl)ethan-1-one] yielded an IC50 [1] of 10 to 100 µM and an IC50 [2] of 0.0001 to 10 µM.
`CN1CCC[C@H]1COc1nc(N2[C@@H]3CC[C@H]2CN(c2nccc(N)n2)C3)c2ccc(-c3cc(O)cc4ccccc34)cc2n1` [P-0270, 4-(4-((1R,5S)-3-(4-aminopyrimidin-2-yl)-3,8-diazabicyclo[3.2.1]octan-8-yl)-2-(((S)-1-methylpyrrolidin-2-yl)methoxy)quinazolin-7-yl)naphthalen-2-ol] showed an IC50 [1] of 10 to 100 µM and an IC50 [2] of 0.0001 to 10 µM.
In the case of `CN1CCC[C@H]1COc1nc(N2[C@@H]3CC[C@H]2CN(C(=O)Nc2ccn[nH]2)C3)c2ccc(-c3cc(O)cc4ccccc34)cc2n1` [P-0271, (1R,5S)-8-(7-(3-hydroxynaphthalen-1-yl)-2-(((S)-1-methylpyrrolidin-2-yl)methoxy)quinazolin-4-yl)-N-(1H-pyrazol-5-yl)-3,8-diazabicyclo[3.2.1]octane-3-carboxamide], the IC50 [1] is reported as 0.0001 to 10 µM and the IC50 [2] is reported as 10 to 100 µM.
With `CN1CCC[C@H]1COc1nc(N2[C@@H]3CC[C@H]2CN(CC(O)CO)C3)c2ccc(-c3cc(O)cc4ccccc34)cc2n1` (stereo partly drawn) [P-0272, 3-((1R,5S)-8-(7-(3-hydroxynaphthalen-1-yl)-2-(((S)-1-methylpyrrolidin-2-yl)methoxy)quinazolin-4-yl)-3,8-diazabicyclo[3.2.1]octan-3-yl)propane-1,2-diol] the IC50 [1] was 10 to 100 µM and the IC50 [2] was 0.0001 to 10 µM.
With `CN1CCC[C@H]1COc1nc(N2[C@@H]3CC[C@H]2CN(C(=O)c2cc[nH]n2)C3)c2ccc(-c3cc(O)cc4ccccc34)cc2n1` [P-0273, ((1R,5S)-8-(7-(3-hydroxynaphthalen-1-yl)-2-(((S)-1-methylpyrrolidin-2-yl)methoxy)quinazolin-4-yl)-3,8-diazabicyclo[3.2.1]octan-3-yl)(1H-pyrazol-3-yl)methanone] the IC50 [1] was 10 to 100 µM and the IC50 [2] was 10 to 100 µM.
`CN1CCC[C@H]1COc1nc(N2[C@@H]3CC[C@H]2CN(CC(=O)N2CCC(N)CC2)C3)c2ccc(-c3cc(O)cc4ccccc34)cc2n1` [P-0274, 1-(4-aminopiperidin-1-yl)-2-((1R,5S)-8-(7-(3-hydroxynaphthalen-1-yl)-2-(((S)-1-methylpyrrolidin-2-yl)methoxy)quinazolin-4-yl)-3,8-diazabicyclo[3.2.1]octan-3-yl)ethan-1-one] gave an IC50 [1] of 100 to 1000 µM and an IC50 [2] of 0.0001 to 10 µM.
`CN1CCC[C@H]1COc1nc(N2[C@@H]3CC[C@H]2CN(CC(=O)N2CC(O)C2)C3)c2ccc(-c3cc(O)cc4ccccc34)cc2n1` [P-0275, 1-(3-hydroxyazetidin-1-yl)-2-((1R,5S)-8-(7-(3-hydroxynaphthalen-1-yl)-2-(((S)-1-methylpyrrolidin-2-yl)methoxy)quinazolin-4-yl)-3,8-diazabicyclo[3.2.1]octan-3-yl)ethan-1-one] gave an IC50 [1] of 10 to 100 µM and an IC50 [2] of 10 to 100 µM.
`CN1CCC[C@H]1COc1nc(N2[C@@H]3CC[C@H]2CN(CC(=O)N2CCOCC2)C3)c2ccc(-c3cc(O)cc4ccccc34)cc2n1` [P-0276, 2-((1R,5S)-8-(7-(3-hydroxynaphthalen-1-yl)-2-(((S)-1-methylpyrrolidin-2-yl)methoxy)quinazolin-4-yl)-3,8-diazabicyclo[3.2.1]octan-3-yl)-1-morpholinoethan-1-one] showed an IC50 [1] of 10 to 100 µM and an IC50 [2] of 10 to 100 µM.
In the case of `CN1CCN(C(=O)CN2C[C@H]3CC[C@@H](C2)N3c2nc(OC[C@@H]3CCCN3C)nc3cc(-c4cc(O)cc5ccccc45)ccc23)CC1` [P-0277, 2-((1R,5S)-8-(7-(3-hydroxynaphthalen-1-yl)-2-(((S)-1-methylpyrrolidin-2-yl)methoxy)quinazolin-4-yl)-3,8-diazabicyclo[3.2.1]octan-3-yl)-1-(4-methylpiperazin-1-yl)ethan-1-one], the IC50 [1] is reported as 10 to 100 µM and the IC50 [2] is reported as 0.0001 to 10 µM.
With `CN1CCC[C@H]1COc1nc(N2C[C@H]3CC[C@@H](C2)N3CC(=O)C2CCOC2)c2ccc(-c3cc(O)cc4ccccc34)c(F)c2n1` (stereo partly drawn) [P-0278, 2-((1R,5S)-3-(8-fluoro-7-(3-hydroxynaphthalen-1-yl)-2-(((S)-1-methylpyrrolidin-2-yl)methoxy)quinazolin-4-yl)-3,8-diazabicyclo[3.2.1]octan-8-yl)-1-(tetrahydrofuran-3-yl)ethan-1-one] the IC50 [1] was 10 to 100 µM and the IC50 [2] was 0.0001 to 10 µM.
With `CN(C)CCNS(=O)(=O)N1[C@@H]2CC[C@H]1CN(c1nc(OCC34CCCN3CCC4)nc3c(F)c(-c4cc(O)cc5ccccc45)ccc13)C2` [P-0280, (1R,5S)-N-(2-(dimethylamino)ethyl)-3-(8-fluoro-7-(3-hydroxynaphthalen-1-yl)-2-((tetrahydro-1H-pyrrolizin-7a(5H)-yl)methoxy)quinazolin-4-yl)-3,8-diazabicyclo[3.2.1]octane-8-sulfonamide] the IC50 [1] was 0.0001 to 10 µM and the IC50 [2] was 0.0001 to 10 µM.
`CN1CCN(CCNS(=O)(=O)N2[C@@H]3CC[C@H]2CN(c2nc(OCC45CCCN4CCC5)nc4c(F)c(-c5cc(O)cc6ccccc56)ccc24)C3)CC1` [P-0281, (1R,5S)-3-(8-fluoro-7-(3-hydroxynaphthalen-1-yl)-2-((tetrahydro-1H-pyrrolizin-7a(5H)-yl)methoxy)quinazolin-4-yl)-N-(2-(4-methylpiperazin-1-yl)ethyl)-3,8-diazabicyclo[3.2.1]octane-8-sulfonamide] gave an IC50 [1] of 0.0001 to 10 µM and an IC50 [2] of 0.0001 to 10 µM.
Compound `CN1CC[C@@H](NS(=O)(=O)N2[C@@H]3CC[C@H]2CN(c2nc(OCC45CCCN4CCC5)nc4c(F)c(-c5cc(O)cc6ccccc56)ccc24)C3)C1` [P-0282, (1R,5S)-3-(8-fluoro-7-(3-hydroxynaphthalen-1-yl)-2-((tetrahydro-1H-pyrrolizin-7a(5H)-yl)methoxy)quinazolin-4-yl)-N-((R)-1-methylpyrrolidin-3-yl)-3,8-diazabicyclo[3.2.1]octane-8-sulfonamide] has an IC50 [1] of 0.0001 to 10 µM and an IC50 [2] of 0.0001 to 10 µM.
In the case of `CN1CCC[C@H]1COc1nc(N2[C@@H]3CC[C@H]2CNC3)c2ccc(-c3cccc4cccc(CO)c34)cc2n1` [P-0283, (8-(4-((1R,5S)-3,8-diazabicyclo[3.2.1]octan-8-yl)-2-(((S)-1-methylpyrrolidin-2-yl)methoxy)quinazolin-7-yl)naphthalen-1-yl)methanol], the IC50 [1] is reported as 10 to 100 µM and the IC50 [2] is reported as 10 to 100 µM.
`O=S(=O)(N[C@@H]1CCNC1)N1[C@@H]2CC[C@H]1CN(c1nc(OCC34CCCN3CCC4)nc3c(F)c(-c4cc(O)cc5ccccc45)ccc13)C2` [P-0284, (1R,5S)-3-(8-fluoro-7-(3-hydroxynaphthalen-1-yl)-2-((tetrahydro-1H-pyrrolizin-7a(5H)-yl)methoxy)quinazolin-4-yl)-N-((R)-pyrrolidin-3-yl)-3,8-diazabicyclo[3.2.1]octane-8-sulfonamide] gave an IC50 [1] of 0.0001 to 10 µM and an IC50 [2] of 0.0001 to 10 µM.
With `CN1CCC[C@H]1COc1nc(N2[C@@H]3CC[C@H]2CNC3)c2ccc(-c3cccc(O)c3)cc2n1` [P-0285, 3-(4-((1R,5S)-3,8-diazabicyclo[3.2.1]octan-8-yl)-2-(((S)-1-methylpyrrolidin-2-yl)methoxy)quinazolin-7-yl)phenol] the IC50 [1] was 100 to 1000 µM and the IC50 [2] was 100 to 1000 µM.
`Cc1c(N)cccc1-c1ccc2c(N3[C@@H]4CC[C@H]3CNC4)nc(OC[C@@H]3CCCN3C)nc2c1` [P-0286, 3-(4-((1R,5S)-3,8-diazabicyclo[3.2.1]octan-8-yl)-2-(((S)-1-methylpyrrolidin-2-yl)methoxy)quinazolin-7-yl)-2-methylaniline] showed an IC50 [1] of 10 to 100 µM and an IC50 [2] of 10 to 100 µM.
With `CN(C)CCCS(=O)(=O)N1[C@@H]2CC[C@H]1CN(c1nc(OCC34CCCN3CCC4)nc3c(F)c(-c4cc(O)cc5ccccc45)ccc13)C2` [P-0287, 4-(4-((1R,5S)-8-((3-(dimethylamino)propyl)sulfonyl)-3,8-diazabicyclo[3.2.1]octan-3-yl)-8-fluoro-2-((tetrahydro-1H-pyrrolizin-7a(5H)-yl)methoxy)quinazolin-7-yl)naphthalen-2-ol] the IC50 [1] was 0.0001 to 10 µM and the IC50 [2] was 0.0001 to 10 µM.
